Experimental data: patent US12076307B2, “Compositions for prevention or treatment of acute radiation syndrome and other radiation exposure” (priority 2017, dated 2024)
Marks after values point to notes of the source that are not given here.

Tests used:
Balb/c mice, 6.11 Gy TBI = assay: Dose optimization / pharmacodynamics study in LD70/30 ARS model (40 mice per group)
CYP2C9 = target: T1, CYP2C9 (Homo sapiens, UniProt P11712); assay: CYP enzyme inhibition in human liver microsomes, CYP2C9; format: in vitro ADME
T1 construct: incubated with human liver microsomes; from tissue; host or cells: human liver microsomes

CXCL8 = CXCL8 release in HaCaT cells treated with CM or rhHMGB1; format: cell-based, human
Protocol: An additional experiment was tested for assessing whether EC-18 treatment leads to early termination of the RIPK1/3-MLKL-mediated downstream necroptosis pathway. This was performed by using DAMP-containing conditioned media (CM) harvested from HaCaT cells, irradiated for 48 hrs, and analyzed after 2 or 72 hrs of EC-18 treatment. […] To further confirm that DAMPs in CM contribute to the activation of a necroptosis signaling pathway in a paracrine manner, recombinant human HMGB1 (rhHMGB1) was treated directly to the normal HaCaT cells. The rhHMGB1 elevated the phosphorylation of RIPK1/3 and MLKL after 2 hrs and subsequently released HMGB1 and HSP90 (FIGS. 35C-35D). To evaluate whether EC-18 mitigates the activation of RIPK1/3 and MLKL, 10 or 100 μg/mL of EC-18 was treated before the addition of CM or rhHMGB1. As a result, EC-18 lowered the phosphorylation of RIPK/3 and MLKL in both CM- and rhHMGB1-treated cells after 2 hrs. Release of HMGB1 and Hsp90 was also subsided by EC-18 after 72 hrs of post addition of CM or rhHMGB1 to the cells (FIGS. 35A-35D). TLR4-induced necroptosis signaling pathway caused by DAMP release produces cytokines, such as CXCL8, a chemotactic cytokine for neutrophils. As CXCL8 increases upon tissue damage, it was measured in cells treated with CM or rhHMGB1 as a measure of inflammation. CXCL8 of CM from cells treated with chemo and radiotherapy was used for this evaluation. […] Moreover, rhHMGB1 increased the production of CXCL8, modulated by EC-18.

[1] = Whole blood and lymphatic radioactivity in rats after single oral [14C]EC-18 100 mg/kg; format: in vivo, rat
SD rat = assay: Immunotoxicity study (splenic blastogenesis response test); format: in vivo; conditions: Oral; 4 weeks
Text: Various toxicology studies have been performed. All studies were GLP-compliant unless otherwise noted.

[2] = tested on: C57BL/6J mice, 680 cGy TBI; assay: 30-day survival in C57BL/6J mice after LD70/30 (680 cGy) TBI; format: in vivo, mouse; conditions: for Dead/Moribund, Females (percent) / Dead/Moribund, Males (percent): N=24; for Dead/Moribund, All Animals (percent): N=48
Protocol: The objective of this study was to evaluate the 30-day survival benefit of EC-18 in male and female C57BL/6J mice when administered by daily oral gavage at doses ranging from 100-375 mg/kg/day, for 30 consecutive days beginning approximately 24 hrs after a single LD70/30 dose (680 cGy) of TBI. The study had 4 dose groups, each with 24 animals of each sex, Group 1 animals were administered sterile PBS, Groups 2, 3, and 4 were administered EC-18 at 100, 250, and 375 mg/kg/day, respectively. Dose volumes were determined using the most recently recorded body weight. Survival was monitored for 30 days post irradiation, with early removal criterion used to determine morbidity. Clinical observations were recorded daily before administration of vehicle or test article. […] Body weights were recorded minimally 3 times per week, daily for animals with weight loss of ≥15%, or twice daily for animals with ≥20% weight loss.

OCT2 = target: T2, OCT2 (Homo sapiens, UniProt O15244); assay: Drug transporter inhibition, OCT2; format: in vitro ADME; conditions: 100 nM [3H] methyl-4-phenylpyridinium; transfected HEK-293 cells
T2 construct: expressed in transfected cells; host or cells: HEK-293
Protocol: This study examined the potential of EC-18 to interact with the transporter proteins that have been known to be involved in the absorption of commercially available drugs. EC-18 was pre-incubated with HEK-293 cells and LLC-PK1 cells that were transfected with the genes of most drug transporters as follows: OATP1B1, OATP1B3, OAT1, OAT3 and OCT2, and BCRP and P-gp, respectively.

T2 sequence (O15244 whole entry): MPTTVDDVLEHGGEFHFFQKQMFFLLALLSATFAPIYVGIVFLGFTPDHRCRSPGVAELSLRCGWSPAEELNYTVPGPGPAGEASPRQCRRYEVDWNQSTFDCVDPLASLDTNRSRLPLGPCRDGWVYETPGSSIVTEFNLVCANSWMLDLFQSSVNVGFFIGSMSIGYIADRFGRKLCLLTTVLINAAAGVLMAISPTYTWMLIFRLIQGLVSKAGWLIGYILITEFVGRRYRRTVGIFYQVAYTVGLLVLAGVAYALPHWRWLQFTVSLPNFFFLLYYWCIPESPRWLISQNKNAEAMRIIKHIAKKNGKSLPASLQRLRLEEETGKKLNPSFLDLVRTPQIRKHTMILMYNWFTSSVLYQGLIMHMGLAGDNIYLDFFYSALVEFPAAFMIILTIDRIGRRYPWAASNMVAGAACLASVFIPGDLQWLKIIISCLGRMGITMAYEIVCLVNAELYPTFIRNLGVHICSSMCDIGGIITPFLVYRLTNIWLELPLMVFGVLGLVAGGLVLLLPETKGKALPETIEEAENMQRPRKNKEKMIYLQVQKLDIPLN
T1 sequence (P11712 whole entry): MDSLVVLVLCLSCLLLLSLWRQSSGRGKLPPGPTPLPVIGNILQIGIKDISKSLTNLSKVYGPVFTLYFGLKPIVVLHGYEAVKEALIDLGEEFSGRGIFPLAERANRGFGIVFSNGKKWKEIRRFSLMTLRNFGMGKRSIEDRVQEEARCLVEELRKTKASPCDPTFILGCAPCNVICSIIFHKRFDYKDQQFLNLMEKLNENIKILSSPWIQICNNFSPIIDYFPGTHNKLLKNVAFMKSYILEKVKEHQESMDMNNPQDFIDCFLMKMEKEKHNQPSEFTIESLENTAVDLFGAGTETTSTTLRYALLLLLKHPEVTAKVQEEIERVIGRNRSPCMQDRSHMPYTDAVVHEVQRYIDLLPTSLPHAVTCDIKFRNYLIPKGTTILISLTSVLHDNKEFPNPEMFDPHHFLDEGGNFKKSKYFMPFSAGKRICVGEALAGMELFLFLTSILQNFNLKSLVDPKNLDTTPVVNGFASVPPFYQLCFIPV

Structure (SMILES): CCCCC/C=C\C/C=C\CCCCCCCC(=O)OC(COC(C)=O)COC(=O)CCCCCCCCCCCCCCC (stereo not shown) [EC-18, 1-palmitoyl-2-linoleoyl-3-acetylglycerol]
- Mean of the First Day of Thrombocytopenia (PLT <100 × 10^3 cells/μL) (±SE) (Balb/c mice, 6.11 Gy TBI; EC-18 250 mg/kg): 10.1 ± 0.1 (10-12)
- Mean of the First Day of SN (ANC <100 cells/μL) (±SE) (Balb/c mice, 6.11 Gy TBI; EC-18 250 mg/kg, 250 mg/kg): 8.5 ± 1.0 (3-17) days
- Mean Duration of Anemia in Days (±SE) (Balb/c mice, 6.11 Gy TBI; EC-18 250 mg/kg, n=19): 9.7 ± 0.7^d (5-17) Days
- Mean Duration of Neutropenia in Days (±SE) (Balb/c mice, 6.11 Gy TBI; EC-18 250 mg/kg, n=20): 21.2 ± 0.7^d (17-27) Days
- Mean Duration of SN in Days (±SE) (Balb/c mice, 6.11 Gy TBI; EC-18 250 mg/kg, n=20): 7.2 ± 0.7^d (2-12) Days
- Mean Duration of Thrombocytopenia in Days (±SE) (Balb/c mice, 6.11 Gy TBI; EC-18 250 mg/kg, n=20): 6.7 ± 0.5^d (3-12) Days
- Mean of the First Day Of Anemia (HGB <12 g/dL) (±SE) (Balb/c mice, 6.11 Gy TBI; EC-18 500 mg/kg): 12.2 ± 0.5 (7-15)
- Mean of the First Day of Neutropenia (ANC <500 cells/μL) (±SE) (Balb/c mice, 6.11 Gy TBI; EC-18 500 mg/kg): 3.4 ± 0.2 (3-5)
- Mean of the First Day of Thrombocytopenia (PLT <100 × 10^3 cells/μL) (±SE) (Balb/c mice, 6.11 Gy TBI; EC-18 500 mg/kg): 10.1 ± 0.1 (10-12)
- Mean of the First Day of SN (ANC <100 cells/μL) (±SE) (Balb/c mice, 6.11 Gy TBI; EC-18 500 mg/kg, 500 mg/kg): 7.0 ± 0.9 (3-20) days
- Mean Duration of Anemia in Days (±SE) (Balb/c mice, 6.11 Gy TBI; EC-18 500 mg/kg, n=19): 14.0 ± 0.8^e (7-20) Days
- Mean Duration of Neutropenia in Days (±SE) (Balb/c mice, 6.11 Gy TBI; EC-18 500 mg/kg, n=19): 21.9 ± 0.6^e (17-27) Days
- Mean Duration of SN in Days (±SE) (Balb/c mice, 6.11 Gy TBI; EC-18 500 mg/kg, n=19): 9.6 ± 0.6^e (2-14) Days
- Mean Duration of Thrombocytopenia in Days (±SE) (Balb/c mice, 6.11 Gy TBI; EC-18 500 mg/kg, n=19): 12.3 ± 0.7^e (7-20) Days
- severity of the nadir (Balb/c mice, 6.11 Gy TBI; mouse, in vivo): diminished
- timing of nadirs for neutrophils, PLTs, red blood cells, hemoglobin (Balb/c mice, 6.11 Gy TBI; mouse, in vivo): unchanged
- IC50 (CYP2C9): 7.99 mM
- CXCL8 level (CXCL8; CM-treated cells): decreased in a dose-dependent manner
- CXCL8 production (CXCL8; rhHMGB1-treated cells): modulated
- Cmax of radioactivity at 24 hrs (so in the source) ([1]; lymphatic fluid): 48%
- Cmax of radioactivity at 24 hrs (so in the source) ([1]; whole blood): 34%
- T and B lymphocyte proliferation (SD rat): No changes in T and B
- combined sex survival ([2]; Group 2, 100 mg/kg/day): 21%
- increased survival above vehicle control, females ([2]; Group 2, 100 mg/kg/day): 29%
- survival, males ([2]; Group 2-4 (100-375 mg/kg/day)): 0-8%
- combined sex survival ([2]; Group 3, 250 mg/kg/day): 25%
- increased survival above vehicle control, females ([2]; Group 3, 250 mg/kg/day): 46%
- combined sex survival ([2]; Group 4, 375 mg/kg/day): 29%
- increased survival above vehicle control, females ([2]; Group 4, 375 mg/kg/day): 46%
- Dead/Moribund, Females (percent) ([2]; Grp 2: 100 mg/kg): 16 (67%)
- Dead/Moribund, Males (percent) ([2]; Grp 2: 100 mg/kg): 22 (92%)
- Dead/Moribund, All Animals (percent) ([2]; Grp 2: 100 mg/kg): 38 (79%)
- Dead/Moribund, Females (percent) ([2]; Grp 3: 250 mg/kg): 12 (50%)
- Dead/Moribund, Males (percent) ([2]; Grp 3: 250 mg/kg): 24 (100%)
- Dead/Moribund, All Animals (percent) ([2]; Grp 3: 250 mg/kg): 36 (75%)
- Dead/Moribund, Females (percent) ([2]; Grp 4: 375 mg/kg): 12 (50%)
- Dead/Moribund, Males (percent) ([2]; Grp 4: 375 mg/kg): 22 (92%)
- Dead/Moribund, All Animals (percent) ([2]; Grp 4: 375 mg/kg): 34 (71%)
- mean body weights vs vehicle ([2]; any study day): no statistically significant differences
- IC50 (OCT2): > 0.032 mM
